Assay results taken from patent publication US5439939A, “Pharmaceutical compositions and methods using isobutyramide for treating betaglobin disorders” (Children's Hospital Medical Center of Northern California, priority 1992, dated 1995).

Key:
[1] = Plasma levels of isobutyramide after administration; type: in vivo, baboon and human
Description: Adult, male baboons (Papio anubis) were used as experimental animals. Three baboons were rendered anemic by daily phlebotomy for at least about 30 days, and maintained at hematocrit values of about 22% by daily phlebotomy. Each anemic baboon was treated with isobutyramide. One baboon (no. 767) received isobutyramide by oral formulation of 150 mg isobutyramide per ml of distilled sterile water administered through a naso-gastric tube three times per week for three weeks. This baboon received isobutyramide at a dosage of 600 mg per kg of body weight. Another baboon (no. 224) received isobutyramide by parenteral formulation of 150 mg isobutyramide per ml of distilled sterile water administered by intravenous infusion over a 30 minute period one time per day for three weeks. This baboon received isobutyramide at a dosage of 500 mg per kg of body weight. […]
Isobutyramide was administered orally to the baboon (no.767) and parenterally to another baboon (no.224) as described in Example 3. The plasma concentrations of the isobutyramide at various times after a single oral dose to those baboons are shown in FIG. 1 (measured by gas liquid chromatography and expressed in millimoles per liter ("mM")). […]

[2] = tested on: erythroid progenitors from peripheral blood; assay: Effect of isobutyramide in vitro on percentage of gammaglobin to total gamma plus betaglobin in cultured erythroid progenitors; type: cell-based, human; conditions: 0.2 mM, about 14 days
Description: Cultures of erythroid progenitors from peripheral blood of patients having a betaglobin disorder and normal subjects were cultured for about 14 days in presence of 0.2 millimoles per liter ("mM") isobutyramide and the percentages of gammaglobin to total gamma plus betaglobin were assayed substantially according to the methods described in Perrine, S. P. et al., Sodium Butyrate Enhances Fetal Globin Gene Expression in Erythroid Progenitors of Patients With Hb SS and Beta Thalassemia, Blood, vol.74, pp.454-459 (1989). The patients with sickle-cell anemia are identified as "SS" and with beta-thalassemia as "beta-thal." Ages are specified in years.

gammaglobin = assay: Effect of isobutyramide on percentage of gammaglobin to total gamma plus betaglobin in anemic baboons in vivo; design: species or system baboon (Papio anubis)
Description: (§1) Adult, male baboons (Papio anubis) were used as experimental animals. Three baboons were rendered anemic by daily phlebotomy for at least about 30 days, and maintained at hematocrit values of about 22% by daily phlebotomy. Each anemic baboon was treated with isobutyramide. One baboon (no. 767) received isobutyramide by oral formulation of 150 mg isobutyramide per ml of distilled sterile water administered through a naso-gastric tube three times per week for three weeks. This baboon received isobutyramide at a dosage of 600 mg per kg of body weight. Another baboon (no. 224) received isobutyramide by parenteral formulation of 150 mg isobutyramide per ml of distilled sterile water administered by intravenous infusion over a 30 minute period one time per day for three weeks. This baboon received isobutyramide at a dosage of 500 mg per kg of body weight. Another baboon (no. 207) received isobutyramide by parenteral formulation of 150 mg isobutyramide per ml of distilled sterile water administered by intravenous infusion over a 30 minute period one time per day for three days. This baboon received isobutyramide at a dosage of 500 mg per kg of body weight. The experiment was terminated with this baboon after three days due to an infection. Blood samples were taken throughout the course of treatment. Samples were assayed to determine the percentage of gammaglobin to total gamma-globin and betaglobin (Table 1) and the percentage of total reticulocytes containing gammaglobin, sometimes called "F-retics" (Table 2). The assay to measure the percentage of gammaglobin to total gamma-globin and betaglobin was by the method described in Perrine, S. P., et al., Delay In The Fetal Globin Switch In Infants Of Diabetic Mothers, New Eng. J. Med. vol.312, pp.334-338 (1985). The assay to measure the percentage of total reticulocytes containing gammaglobin was performed by the method described in Rogers, G., et al., Hematologic Response of Patients with Sickle Cell Disease To Treatment with Hydroxyurea, New Eng. J. Med., vol.322, pp.1037-1045 (1990).

[3] = tested on: reticulocytes containing gammaglobin (F-retics); assay: Effect of isobutyramide on percentage of F-retics to total reticulocytes in anemic baboons in vivo; design: species or system baboon (Papio anubis)
Description: as §1

[4] = standard assays; cited from earlier work
[5] = administered in therapeutically effective amounts; cited from earlier work
[6] = species not given; cited from earlier work

SMILES: CC(C)C(N)=O [isobutyramide, Isobutyramide]
- plasma levels ([1]; oral and parenteral administration): sufficient to yield therapeutic effects
- half-life ([1]; plasma, after oral or parenteral administration, species not specified (baboons and humans)): 456 to 630 min
- production of fetal hemoglobin in culture ([2]; Table 3): significantly stimulated the production of fetal hemoglobin in culture
- Percentage of gammaglobin to total gamma plus betaglobin, treatment ([2]; SS (sickle-cell anemia), age 10-11, pre-treatment 22): 40%
- Percentage of gammaglobin to total gamma plus betaglobin, treatment ([2]; SS (sickle-cell anemia), pre-treatment 17): 96%
- Percentage of gammaglobin to total gamma plus betaglobin, treatment ([2]; SS (sickle-cell anemia), pre-treatment 42): 55%
- Percentage of gammaglobin to total gamma plus betaglobin, treatment ([2]; SS (sickle-cell anemia), pre-treatment 70): 78%
- Percentage of gammaglobin to total gamma plus betaglobin, treatment ([2]; beta-thal, newborn, pre-treatment 40): 50%
- Percentage of gammaglobin to total gamma plus betaglobin, treatment ([2]; beta-thal, pre-treatment 65): 98%
- Percentage of gammaglobin to total gamma plus betaglobin, treatment ([2]; beta-thal, pre-treatment 70): 64%
- Percentage of gammaglobin to total gamma plus betaglobin, treatment ([2]; normal, newborn, pre-treatment 5): 45%
- Percentage of gammaglobin to total gamma plus betaglobin, treatment ([2]; normal, newborn, pre-treatment 20): 26%
- Percentage of gammaglobin to total gamma plus betaglobin, treatment ([2]; normal, newborn, pre-treatment 69): 72%
- production of fetal hemoglobin in vivo (gammaglobin; anemic baboons, Tables 1 and 2): significantly stimulated the production of fetal hemoglobin
- Percentage of gammaglobin to total gamma plus betaglobin, treatment (highest achieved) (gammaglobin; baboon 207, 500 mg per kg i.v. infusion over 30 min, once per day for three days, pre-treatment 0): 9%
- Percentage of gammaglobin to total gamma plus betaglobin, treatment (highest achieved) (gammaglobin; baboon 224, 500 mg per kg i.v. infusion over 30 min, once per day for three weeks, pre-treatment 2): 11%
- Percentage of gammaglobin to total gamma plus betaglobin, treatment (highest achieved) (gammaglobin; baboon 767, 600 mg per kg oral (naso-gastric tube), three times per week for three weeks, pre-treatment 3): 12%
- Percentage of F-retics to total reticulocytes, treatment ([3]; baboon 207, 500 mg per kg i.v. infusion over 30 min, once per day for three days, pre-treatment 3): 15%
- Percentage of F-retics to total reticulocytes, treatment ([3]; baboon 224, 500 mg per kg i.v. infusion over 30 min, once per day for three weeks, pre-treatment 16): 27%
- Percentage of F-retics to total reticulocytes, treatment ([3]; baboon 767, 600 mg per kg oral (naso-gastric tube), three times per week for three weeks, pre-treatment 13): 17%
- mutagenicity [4]: not mutagenic
- toxicity [5]: substantially non-toxic
- acute intravenous LD 50 [6]: about 3 g per kilogram
